# Data published in US7326700B2, “Cyclohexenyl phenyl carboxamides tocolytic oxytocin receptor antagonists” (Wyeth, priority 2001, dated 2008).
# Target: T1, human vasopressin V2 receptor subtype (Homo sapiens, UniProt P30518)
# T1 construct: host or cells: CHO cells, stably transfected (pZeoSV vector)
# Test: Vasopressin binding in CHO cell membranes expressing human vasopressin V2 subtype receptors ([3H]arginine vasopressin radioligand binding)
# Conditions: 100 nM
# Excerpt: Chinese Hamster Ovary (CHO) cells stably transfected with the human V2 subtype receptors were obtained from M. Thibonnier, Case Western Reserve University School of Medicine, Cleveland, Ohio.
# CHO cells transfected with the human vasopressin V2 subtype receptors obtained from M. Thibonnier (pZeoSV vector) are allowed to grow to confluency (approx. >90%) in T-150 flasks under sterile conditions, in a cell culture medium consisting of F-12 Nutrient Mixture (HAM) with L-glutamine (Gibco Cat. #11765-054) containing 15 mM HEPES (Gibco Cat. #15630-080), 1% antibiotic/antimycotic (add 5 mL 100×, Gibco Cat. #15240-062 per 500 mL F-12), 250 μg/mL Zeocin (add 1.25 mL of 100 mg/mL Invitrogen R-250-01 per 500 mL F-12) and 10% Fetal Bovine Serum (Qualified, heat inactivated, Gibco Cat. #16140-063). The medium is removed by aspiration and the cells washed with 10 mL of Hank's Balanced Salt solution (Gibco Cat. #14175-095). The salt solution is removed by aspiration and the cells trypsinized with 5 mL of trypsin-EDTA (0.05% trypsin, 0.53 mM EDTA-4Na, Gibco Cat. #25300-070) for 1 min. The trypsin is removed by aspiration and the cells dislodged by tapping. Cell Culture medium (e.g. 30 mL for 1:30 split) is immediately added and mixed well to inactivate trypsin. 1 mL of detached cells is added to new culture flasks containing fresh Cell Culture medium (e.g. into 25 mL per T-150 flask), and mixed gently. The cells are incubated at 37° C. in 5% CO2. The medium is changed at 3 to 4 day interval (or as appropriate). The cells grow to confluency (approx. >75%-95%) within 7-8 days. All steps are done under sterile conditions.
# The cells are washed twice gently with Hank's Balanced Salt solution (e.g. use 10 mL per T-150 flask). The excess solution is removed and the cells bathed for 15-30 min. in an enzyme-free Cell Dissociation Buffer (e.g. use 8 mL Hank's Based, Gibco Cat. #13150-016 per T-150 flask) until cells are loosened. The contents are transferred to centrifuge tubes (50 mL) kept in an ice bath. All subsequent steps are done at 4° C. The tubes are centrifuged at 300×g for 15 min (1380 rpm on SORVAL, Model RT6000D, using the rotor for 50 mL tubes). The supernatant is discarded and the cells suspended in homogeneizing buffer(10 mM Tris-HCl containing 0.25 M sucrose and 1 mM EDTA, pH 7.4) ensuring that the volume of the buffer is about ten times the volume of the cell pellet. The cells are pooled into a centrifuge tube (50 mL) and homogenized with Polytron at setting 6 for 10 sec. The homogenate is transferred into a Potter-Elvjehm homogeneizer and homogenized with 3 strokes. The homogenate is centrifuged at 1500×g for 60 min at 4° C. (3100 rpm using SORVAL, model RT6000D, using the rotor for 50 mL tubes). The pellet is discarded. The supernatant is centrifuged at 100,000×g for 60 min. at 4° C. (Beckman L8-80M ultracentrifuge; spin at 37,500 rpm with rotor type 70 Ti for 50 mL tubes; 38,000 rpm with type 80 Ti for 15 mL tubes; or 35,800 rpm with rotor type 45Ti). The supernantant is discarded and the pellet suspended in 3 to 4 mL of Tris buffer (50 mM TRIS-HCl, pH 7.4). The protein content is estimated by the Bradford or Lowry method. The volume of the membrane suspension is adjusted with the membrane buffer (50 mM Tris-HCl containing 0.1% BSA and 0.1 mM PMSF) to give 3.0 mg/mL (or as appropriate) of protein. The membranes are aliquoted and stored at −70° C.
# In wells of a 96-well format microtiter plate, is added 90, 110 or 130 μL (to make up a final volume of 200 μL) of assay buffer containing 50 mM of Tris-HCl (pH 7.4), […], 1 mg % aprotinin, 1 mg % leupeptin, 2 mg % 1,10-phenanthroline, 10 mg % trypsin inhibitor, and 0.1 mM PMSF. The inhibitors are added on the day of the experiment. The components are mixed at room temperature, and then kept in ice bath following adjustment of the pH to 7.4. […]
# T1 sequence (P30518 whole entry): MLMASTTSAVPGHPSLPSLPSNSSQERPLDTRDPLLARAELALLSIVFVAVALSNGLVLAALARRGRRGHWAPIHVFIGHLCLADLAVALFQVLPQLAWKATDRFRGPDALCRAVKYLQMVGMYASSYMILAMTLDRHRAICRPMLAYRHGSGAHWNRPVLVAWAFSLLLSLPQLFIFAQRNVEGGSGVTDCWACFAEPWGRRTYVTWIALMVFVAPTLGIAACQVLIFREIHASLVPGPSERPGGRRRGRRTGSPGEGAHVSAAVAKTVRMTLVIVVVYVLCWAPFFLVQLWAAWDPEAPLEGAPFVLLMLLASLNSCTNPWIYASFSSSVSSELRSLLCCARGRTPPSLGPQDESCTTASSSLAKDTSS
SMILES,V2 % inhibition @ 100 nM,inhibition at 0.1 µM
"CC1=C(c2ccc(C(=O)N3Cc4ccc(C(=O)N5CCN(C)CC5)n4Cc4ccccc43)cc2C)CCCC1O (stereo not drawn) [Example 10, [4-(3-Hydroxy-2-methyl-cyclohex-1-en-1-yl)-3-methyl-phenyl]-[3-(4-methyl-piperazine-1carbonyl)-10,11-dihydro-5H-pyrrolo[2,1-c][1,4]benzodiazepin-10-yl]-methanone]",–,-8%
"Cc1cc(C(=O)N2Cc3ccc(C(=O)N4CC[C@@H](N(C)C)C4)n3Cc3ccccc32)ccc1C1=CCCCC1 [Example 27, {10-[4-(1-Cyclohex-1-en-1-yl)-3-methylbenzoyl]-10,11-dihydro-5H-pyrrolo[2,1-c][1,4]benzodiazepin-3-yl}[(3R)-3-(dimethylamino)pyrrolidinyl]methanone]",10%,–
"Cc1cc(C(=O)N2Cc3ccc(C(=O)N4CCN(CCN(C)C)CC4)n3Cc3ccccc32)ccc1C1=CCCCC1 [Example 22, {10-[4-(1-Cyclohex-1-en-1-yl)-3-methylbenzoyl]-10,11-dihydro-5H-pyrrolo[2,1-c][1,4]benzodiazepin-3-yl}{4-[2-(dimethylamino)ethyl]-1-piperazinyl}methanone]",13%,–

# Next, values leading:
V2 % inhibition @ 100 nM,inhibition at 0.1 µM,SMILES
3%,–,"Cc1cc(C(=O)N2Cc3ccc(C(=O)N4CCCN(C)CC4)n3Cc3ccccc32)ccc1C1=CCCCC1 [Example 13, {10-[4-(1-Cyclohex-1-en-1-yl)-3-methylbenzoyl]-10,11-dihydro-5H-pyrrolo[2,1-c][1,4]benzodiazepin-3-yl}(4-methyl-1,4-diazepan-1-yl)methanone]"
14%,–,"Cc1cc(C(=O)N2Cc3ccc(C(=O)NCCN4CCCCC4)n3Cc3ccccc32)ccc1C1=CCCCC1 [Example 20, 10-[4-(1-Cyclohex-1-en-1-yl)-3-methylbenzoyl]-N-[2-(1-piperidinyl)ethyl]-10,11-dihydro-5H-pyrrolo[2,1-c][1,4]benzodiazepine-3-carboxamide]"
9%,–,"Cc1cc(C(=O)N2Cc3ccc(C(=O)N4CCC[C@H]4CN4CCCC4)n3Cc3ccccc32)ccc1C1=CCCCC1 [Example 26, {10-[4-(1-Cyclohex-1-en-1-yl)-3-methylbenzoyl]-10,11-dihydro-5H-pyrrolo[2,1-c][1,4]benzodiazepin-3-yl}[(2S)-2-(1-pyrrolidinylmethyl)pyrrolidinyl]methanone]"
